This note sets out measurements from patent publication US20260365628A1, “SUBSTITUTED 3,4-DIHYDROQUINOLINONE INHIBITORS OF TSHR” (Septerna, Inc., priority 2022, published 2026).

The structures appear in SMILES notation.

The target of the experiment is T1, hTSHR (Homo sapiens, UniProt P16473).
T1 construct: expressed in transfected cells
T1 sequence (P16473 21-764): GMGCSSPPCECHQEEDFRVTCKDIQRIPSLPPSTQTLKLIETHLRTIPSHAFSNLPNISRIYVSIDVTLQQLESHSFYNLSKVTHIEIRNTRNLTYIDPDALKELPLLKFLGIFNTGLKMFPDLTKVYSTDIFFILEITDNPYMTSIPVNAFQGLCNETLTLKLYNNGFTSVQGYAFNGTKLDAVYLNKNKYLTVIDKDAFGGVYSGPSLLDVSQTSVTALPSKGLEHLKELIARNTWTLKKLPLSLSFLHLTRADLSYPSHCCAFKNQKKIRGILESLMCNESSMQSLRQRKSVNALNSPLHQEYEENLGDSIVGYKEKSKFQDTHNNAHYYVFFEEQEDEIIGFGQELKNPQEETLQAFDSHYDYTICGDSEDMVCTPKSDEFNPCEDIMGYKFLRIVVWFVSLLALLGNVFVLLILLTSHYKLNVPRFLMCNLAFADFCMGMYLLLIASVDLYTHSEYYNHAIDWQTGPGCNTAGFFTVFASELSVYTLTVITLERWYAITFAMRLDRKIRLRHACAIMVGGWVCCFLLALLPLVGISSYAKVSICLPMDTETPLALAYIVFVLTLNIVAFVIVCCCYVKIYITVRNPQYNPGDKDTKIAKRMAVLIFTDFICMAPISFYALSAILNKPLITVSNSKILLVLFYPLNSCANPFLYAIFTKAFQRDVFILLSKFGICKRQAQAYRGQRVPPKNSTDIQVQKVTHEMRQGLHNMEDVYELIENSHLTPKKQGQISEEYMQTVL
The experiment in a line: hTSHR TR-FRET cAMP Assay (inhibition of M22-stimulated cAMP production). It is filed as cell-based. The settings on record: Expi293F Inducible cells stably expressing hTSHR; cAMP HTRF; stimulated with EC80 of anti-TSHR antibody M22; 15 min compound preincubation, 30 min at 37° C.; read-out: Activity (IC50 bins). The protocol:
Assays were performed using Expi293F Inducible cells (Invitrogen) stably expressing hTSHR via a pcZeo TetO DNA plasmid. Cell lines were maintained in suspension in Expi293 Expression Medium (ThermoFisher Scientific) supplemented with 10 µg/mL Blasticidin and 10 μg/mL Zeocin and incubated at 37° C., 8% CO2, with shaking. hTSHR cells were incubated overnight at 32° C., 5% C02, with shaking, but […] Doxycycline. Assay-ready aliquots were prepared by harvesting each cell type separately 24-hours post-induction. Cells were pelleted at 4° C., resuspended in Expi293 Expression media+10% DMSO, aliquoted, and kept frozen at −80° C. until ready for use.
For the assay, concentration-response curves of test and reference compounds were added to 384-well plates using an Echo 650 liquid handler (Beckman Coulter) and backfilled with DMSO to a final concentration of 0.5%. cAMP was measured using the cisbio cAMP Gs dynamic HTRF kit (PerkinElmer) according to manufacturer instructions. Aliquots of frozen hTSHR cells were quickly thawed and washed with phosphate-buffered saline (Sigma-Aldrich) to remove media and DMSO. The cells were resuspended in kit-supplied Stimulation Buffer at 0.8×10^6 cells/mL. 7.5 μL of the hTSHR cell dilution were added to each well of the assay plate and incubated with the compounds for 15 minutes in a 37 C, 0% CO2 incubator. 2.5 μL of Vehicle control or an EC80 concentration of recombinant human anti-TSHR antibody (M22, Creative Biolabs) was added to stimulate cAMP production. Cells were incubated with for 30 minutes at 37° C., 0% CO2. Following this incubation, the cells were lysed and accumulated cAMP was detected through the addition of kit-supplied lysis buffer containing d2-reagent and Eu-cryptate antibody. The HTRF signal was quantified using a BMG Clariostar plate reader optimized for HTRF assays. The HTRF ratio was determined by dividing the signal output at […] by that at 620 nm. Data were normalized to the signal produced by the EC80 concentration of either M22 or FSH (0% inhibition) and vehicle (no agonist, 100% inhibition).
(In general: In TR-FRET formats the signal depends on donor and acceptor labels being close together.)
A word on the IC50: it is the point on the concentration scale where inhibition reaches its midpoint. `CC1Oc2cc(NC(=O)NC(C)(C)C)ccc2N(Cc2cccc(Cl)c2)C1=O` (single isomer, unassigned) [Example 43]: the IC50 is below 100 nM.
Then `C[C@H]1Oc2cc(NC(=O)NC(C)(C)C)ccc2N([C@@H](C)c2cncc(C(F)(F)F)n2)C1=O` (single isomer, unassigned) [Example 306], with above 1000 nM; and `C[C@H]1Oc2cc(NC(=O)NC(C)(C)C)ccc2N([C@@H](C)c2ccnc(C(F)(F)F)n2)C1=O` (single isomer, unassigned) [Example 310], with 100 to 1000 nM.
Regarding `C[C@H](c1ccnc(C(F)(F)F)n1)N1C(=O)[C@@H](C)Oc2cc(NC(=O)NC(C)(C)C)ccc21` (single isomer, unassigned) [Example 311], the IC50 was above 1000 nM.
Then `C[C@H]1Cc2cc(NC(=O)NC(C)(C)C)c(F)cc2N(Cc2ccccc2)C1=O` (single isomer, unassigned) [Example 333], with above 1000 nM; and `C[C@@H]1Cc2cc(NC(=O)NC(C)(C)C)c(F)cc2N(Cc2ccccc2)C1=O` (single isomer, unassigned) [Example 334], with above 1000 nM.
The same measure for `CC1Oc2cc(NC(=O)NC(C)(C)C)ccc2N(Cc2cccc(Cl)c2)C1=O` (stereo in doubt) [Example 44, (S)-1-(tert-butyl)-3-(4-(3-chlorobenzyl)-2-methyl-3-oxo-3,4-dihydro-2H-benzo[b][1,4]oxazin-7-yl)urea]: below 100 nM; for `C[C@@H](c1cccc(C(O)C(F)(F)F)n1)n1c(=O)cnc2cc(NC(=O)NC(C)(C)C)ccc21` (stereo in doubt) [Example 154, 1-(tert-butyl)-3-(2-oxo-1-((S)-1-(6-((R)-2,2,2-trifluoro-1-hydroxyethyl)pyridin-2-yl)ethyl)-1,2-dihydroquinoxalin-6-yl)urea]: 100 to 1000 nM; for `C[C@@H](c1cccc(OC(F)(F)F)c1)n1c(=O)cnc2cc(NC(=O)C3CCC3(C)C)ccc21` (stereo in doubt) [Example 219, (S)-2,2-dimethyl-N-(2-oxo-1-((S)-1-(3-(trifluoromethoxy)phenyl)ethyl)-1,2-dihydroquinoxalin-6-yl) cyclobutane-1-carboxamide]: below 100 nM.
With `CC(c1cccc(OC(F)(F)F)c1)n1c(=O)cnc2cc(NC(=O)[C@H]3CCC3(C)C)ccc21` (stereo in doubt) [Example 220, (S)-2,2-dimethyl-N-(2-oxo-1-((R)-1-(3-(trifluoromethoxy)phenyl)ethyl)-1,2-dihydroquinoxalin-6-yl) cyclobutane-1-carboxamide], the IC50 was in the range of 100 to 1000 nM.
Turning to `CC1Oc2nc(NC(=O)NC(C)(C)C)c(C(F)(F)F)cc2N(Cc2ccccc2)C1=O` (stereo in doubt) [Example 378, (R)-1-(1-benzyl-3-methyl-2-oxo-7-(trifluoromethyl)-2,3-dihydro-1H-pyrido[2,3-b][1,4]oxazin-6-yl)-3-(tert-butyl)urea], the IC50 lay within 100 to 1000 nM.
For the compound `CC(C)(C)NC(=O)Nc1ccc2c(c1)CCC(=O)N2Cc1ccccc1` [Example 1, 1-(1-benzyl-2-oxo-1,2,3,4-tetrahydroquinolin-6-yl)-3-(tert-butyl)urea], the IC50 was below 100 nM.
Then `CC(C)(C)NC(=O)Nc1ccc2c(c1)CCC(=O)N2Cc1ccccn1` [Example 2, 1-(tert-butyl)-3-(2-oxo-1-(pyridin-2-ylmethyl)-1,2,3,4-tetrahydroquinolin-6-yl)urea], with above 1000 nM; and `CC(c1ccccc1)N1C(=O)CCc2cc(NC(=O)NC(C)(C)C)ccc21` (centres unmarked) [Example 3, 1-(tert-butyl)-3-(2-oxo-1-(1-phenylethyl)-1,2,3,4-tetrahydroquinolin-6-yl)urea], with below 100 nM.
On to `Cn1ccc(CN2C(=O)CCc3cc(NC(=O)NC(C)(C)C)ccc32)n1` [Example 4, 1-(tert-butyl)-3-(1-((1-methyl-1H-pyrazol-3-yl)methyl)-2-oxo-1,2,3,4-tetrahydroquinolin-6-yl)urea], for which the IC50 was above 1000 nM.
Then `CC1Cc2cc(NC(=O)NC(C)(C)C)ccc2N(Cc2ccccc2)C1=O` (centres unmarked) [Example 5, 1-(1-benzyl-3-methyl-2-oxo-1,2,3,4-tetrahydroquinolin-6-yl)-3-(tert-butyl)urea], with below 100 nM.
Then `CC(C)(C)NC(=O)Nc1ccc2c(c1)CCC(=O)N2Cc1cccc(Cl)c1` [Example 6, 1-(tert-butyl)-3-(1-(3-chlorobenzyl)-2-oxo-1,2,3,4-tetrahydroquinolin-6-yl)urea], with below 100 nM; and `CC(C)(C)NC(=O)Nc1ccc2c(c1)OCC(=O)N2Cc1ccccc1` [Example 7, 1-(4-benzyl-3-oxo-3,4-dihydro-2H-benzo[b][1,4]oxazin-7-yl)-3-(tert-butyl)urea], with below 100 nM; and `CC(C)(C)NC(=O)Nc1ccc2c(c1)CCC(=O)N2Cc1ccccc1Cl` [Example 8, 1-(tert-butyl)-3-(1-(2-chlorobenzyl)-2-oxo-1,2,3,4-tetrahydroquinolin-6-yl)urea], with 100 to 1000 nM.
Then `CC(C)(C)OC(=O)Nc1ccc2c(c1)CCC(=O)N2Cc1ccccc1` [Example 9, tert-butyl (1-benzyl-2-oxo-1,2,3,4-tetrahydroquinolin-6-yl)carbamate], with below 100 nM; and `CC(C)(C)NC(=O)Nc1ccc2c(c1)C(C)(C)CC(=O)N2Cc1ccccc1` [Example 10, 1-(1-benzyl-4,4-dimethyl-2-oxo-1,2,3,4-tetrahydroquinolin-6-yl)-3-(tert-butyl)urea], with above 1000 nM.
Regarding `COCC1Cc2cc(NC(=O)NC(C)(C)C)ccc2N(Cc2ccccc2)C1=O` (centres unmarked) [Example 11, 1-(1-benzyl-3-(methoxymethyl)-2-oxo-1,2,3,4-tetrahydroquinolin-6-yl)-3-(tert-butyl)urea], the IC50 lay within 100 to 1000 nM.
The same measure for `CN1Cc2cc(NC(=O)NC(C)(C)C)ccc2N(Cc2ccccc2)C1=O` [Example 12, 1-(1-benzyl-3-methyl-2-oxo-1,2,3,4-tetrahydroquinazolin-6-yl)-3-(tert-butyl)urea]: 100 to 1000 nM.
Then `C[C@@H](c1ccccc1)N1C(=O)CCc2cc(NC(=O)NC(C)(C)C)ccc21` [Example 13, (S)-1-(tert-butyl)-3-(2-oxo-1-(1-phenylethyl)-1,2,3,4-tetrahydroquinolin-6-yl)urea], with below 100 nM; and `C[C@H](c1ccccc1)N1C(=O)CCc2cc(NC(=O)NC(C)(C)C)ccc21` [Example 14, (R)-1-(tert-butyl)-3-(2-oxo-1-(1-phenylethyl)-1,2,3,4-tetrahydroquinolin-6-yl)urea], with above 1000 nM.
Then `CC1CC(=O)N(Cc2ccccc2)c2ccc(NC(=O)NC(C)(C)C)cc21` (centres unmarked) [Example 15, 1-(1-benzyl-4-methyl-2-oxo-1,2,3,4-tetrahydroquinolin-6-yl)-3-(tert-butyl)urea], with above 1000 nM.
For the compound `CC(C)(CCO)NC(=O)Nc1ccc2c(c1)CCC(=O)N2Cc1ccccc1` [Example 16, 1-(1-benzyl-2-oxo-1,2,3,4-tetrahydroquinolin-6-yl)-3-(4-hydroxy-2-methylbutan-2-yl)urea], the IC50 was in the range of 100 to 1000 nM.
The same measure for `CC(C)(C)NC(=O)Nc1ccc2c(c1)CCC(=O)N2Cc1ccc(C#N)cc1` [Example 17, 1-(tert-butyl)-3-(1-(4-cyanobenzyl)-2-oxo-1,2,3,4-tetrahydroquinolin-6-yl)urea]: above 1000 nM.
Consider `CC(C)(C)NC(=O)Nc1ccc2c(c1)CCC(=O)N2Cc1cccc(C#N)c1` [Example 18, 1-(tert-butyl)-3-(1-(3-cyanobenzyl)-2-oxo-1,2,3,4-tetrahydroquinolin-6-yl)urea], for which the IC50 was above 1000 nM.
